Laboratory results taken from patent publication US6376707B1, “Crystal polymorphism of aminoethylphenoxyacetic acid derivative” (Kissei Pharmaceutical Co., Ltd., priority 1999, dated 2002).
Values after ≈ are worked out from the molar mass of the structure shown. Like-named read-outs stand apart in the source and are kept apart here.

Tests used:
[1] = biological target: T1, β2-Adrenoceptor (Rattus norvegicus, UniProt P10608); assay: β2-Adrenoceptor stimulating effect: spontaneous contractions of isolated pregnant rat uterus (Magnus method); type: cell-based; settings: isolated uterus of pregnant SD rats (day 21), cumulative addition every 5 minutes, 37° C.; read-out: 50% inhibitory drug concentration (EC50 value), uterine contractions
T1 construct: The uteri of pregnant SD rats (pregnancy day of 21) were isolated; from tissue; host or cells: isolated uterus (longitudinal myometrial preparations) of pregnant SD rats, day 21
T1 sequence (P10608 whole entry): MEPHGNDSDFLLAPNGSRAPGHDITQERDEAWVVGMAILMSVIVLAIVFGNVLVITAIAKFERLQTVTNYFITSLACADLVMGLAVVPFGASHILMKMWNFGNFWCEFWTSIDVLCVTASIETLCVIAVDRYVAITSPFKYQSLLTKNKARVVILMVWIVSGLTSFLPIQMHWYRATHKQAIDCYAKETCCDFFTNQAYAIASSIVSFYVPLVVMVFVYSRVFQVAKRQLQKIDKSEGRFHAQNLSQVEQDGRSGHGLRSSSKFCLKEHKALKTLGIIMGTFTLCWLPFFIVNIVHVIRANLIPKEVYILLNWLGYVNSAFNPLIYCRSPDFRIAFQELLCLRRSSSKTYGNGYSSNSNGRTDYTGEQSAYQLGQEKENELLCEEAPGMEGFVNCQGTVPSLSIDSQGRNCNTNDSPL
Protocol: The uteri of pregnant SD rats (pregnancy day of 21) were isolated, and longitudinal preparations of approximately 15 mm in length and approximately 5 mm in width free from the basal plate were prepared. The experiment was conducted according to the Magnus method. The preparations with a tension of 1 g were exposed to Locke-Ringer solution maintained at 37° C. and gassed with a mixture of 95% of oxygen and 5% of carbon dioxide. Spontaneous contractions of the myometrium were isometrically measured with a force-displacement transducer and recorded by a rectigram. 2-[4-[2-[[(1S, 2R)-2-Hydroxy-2-(4-hydroxyphenyl)-1-methylethyl]amino]ethyl]-phenoxy]acetic acid was cumulatively added to the Magnus bath every 5 minutes. The drug efficacy was evaluated by comparing the sum of uterine contractions during 5 minutes after the addition of the drug with that during 5 minutes before the addition of the drug which was expressed as 100%.

[2] = Solubility in water; type: physicochemical; settings: in water (37° C.)
Protocol: (§1) As examples of crystalline polymorphs other than the crystalline polymorph of the present invention, there are the crystalline polymorph (crystalline form γ) having strong diffraction peaks (diffraction angle: 2θ±0.1°) at 18.1, 19.7, 20.3, 21.2 and 22.4° and the crystalline polymorph (crystalline form […]) having strong diffraction peaks (diffraction angle: 2θ±0.1°) at 10.2, 13.2, 17.6, 19.8 and 20.6° in powder X-ray diffraction pattern. […] Thus, the crystalline polymorph of the present invention has an excellent low hygroscopicity and good storage. […] Thus, the crystalline polymorph of the present invention is favorable to oral administration and has a favorable efficiency in preparing liquid preparations such as injections.

[3] = Drug absorption on oral administration; type: in vivo; settings: orally administered
Protocol: as §1

[4] = Hygroscopicity (moisture absorption on standing under relative humidity); type: physicochemical
Protocol: as §1

C[C@H](NCCc1ccc(OCC(=O)O)cc1)[C@H](O)c1ccc(O)cc1 [2-[4-[2-[[(1S,2R)-2-hydroxy-2-(4-hydroxy-phenyl)-1-methylethyl]amino]ethyl]phenoxy]acetic acid]
EC50 [1]: 31 nM

CC(NCCc1ccc(OCC(=O)O)cc1)C(O)c1ccc(O)cc1 [crystalline form α, 2-[4-[2-[[(1S,2R)-2-Hydroxy-2-(4-hydroxyphenyl)-1-methyl-ethyl]amino]ethyl]phenoxy]acetic Acid (Crystalline Form α)]
solubility ([2]; read-out: solubility): 2700 µg/mL (≈ 7.82 mM) | drug absorption [3]: excellent drug absorption | moisture absorption (hygroscopicity) ([4]; allowed to stand for 10 days under relative humidities of 51-93%): does not absorb moisture

C[C@H](NCCc1ccc(OCC(=O)O)cc1)[C@H](O)c1ccc(O)cc1 [crystalline form γ, 2-[4-[2-[[(1S,2R)-2-Hydroxy-2-(4-hydroxyphenyl)-1-methyl-ethyl]amino]ethyl]phenoxy]acetic Acid (Crystalline Form γ)]
moisture absorption (hygroscopicity) ([4]; conditions not given): easily absorb moisture to convert into their hydrates

C[C@H](NCCc1ccc(OCC(=O)O)cc1)[C@H](O)c1ccc(O)cc1 [crystalline form δ, 2-[4-[2-[[(1S,2R)-2-Hydroxy-2-(4-hydroxyphenyl)-1-methyl-ethyl]amino]ethyl]phenoxy]acetic Acid (Crystalline Form δ)]
solubility [2]: 1800 µg/mL (≈ 5.21 mM)
